How the values were obtained:
[1] = rats, within 24 hours of administration; cited from earlier work
[2] = in vivo
Experimental: The ability to detect the blood concentration of a pain reliever, such as liquid acetaminophen in the blood stream by measuring a tracer is described. The research is carried out by two researchers A & B.
10 ml liquid cough medicine (acetaminophen) 10 ml of 80 proof vodka
Researcher “A” combines the liquid cough medicine together with the vodka in a common flask. “A” stirs until mixed. “A” gives the mixture to the study subject to consume orally. Waits 30 minutes. Subject breathes into breathalyzer, “A” extracts blood sample. “A” repeats both measurements 8 more times at 30 minute intervals. “A” compares alcohol readings with a PK curve for alcohol; compares mass spectrometer analysis of blood for the presence of acetaminophen with a PK curve for acetaminophen.
The standard PK curves for alcohol & acetaminophen are provided to “B”, and he is told the must analyze one reading that was taken 2 hours after ingestion, and determine whether the alcohol reading was within the anticipated range of PK curve. He is given the alcohol breathalyzer result for 2 hours after ingestion.

CC(C)=CCCC(C)=CC=O [Citral]
fraction of the given dose excreted in urine [1]: 50%

CCO [alcohol]
2-hour breathalyzer reading versus anticipated range of PK curve [2]: fall within statistical range
PK results versus standard PK curve for alcohol ([2]; po): fall within range of the standard PK curve

CC(=O)Nc1ccc(O)cc1 [acetaminophen]
PK results versus standard PK curve for acetaminophen ([2]; po): fall within range of the standard PK curve
